Measurements: PubChem BioAssay AID2060329 (Molecular Pharmacology Branch, DTP, NCI, 2025)
Several values for one entry are separate records, joined by “and”; a condition that tells them apart may be missing. Equal values may be shown once.

System: MCF7 multi-cell spheroids with HUVEC/MSC, viability
Assay: Anticancer human tumor MCF7 cell line growth inhibition [IpAb];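 further: spheroids exposed to agents for seven days before readout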
Conditions: for viability, T/C: stronger effect = lower value
Summary of the method: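 Combinations with ipatasertib or abemaciclib were tested on tumour spheroids holding HUVEC (25%) and MSC (15%) alongside 60% malignant cells. Top concentration was at or near clinical Cmax (10 microM if undefined), descending in half-log steps.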

[1] = curve of first compound, second compound 0.01 µM
[2] = curve of first compound, second compound 0.0316 µM
[3] = curve of first compound, second compound 0.1 µM
[4] = curve of first compound, second compound 0.316 µM
[5] = curve of first compound, second compound 1 µM
[6] = second compound 0.01 µM, first compound 0.0316 µM
[7] = second compound 0.01 µM, first compound 0.1 µM
[8] = second compound 0.01 µM, first compound 0.316 µM
[9] = second compound 0.01 µM, first compound 1 µM
[10] = second compound 0.01 µM, first compound 3.16 µM
[11] = second compound 0.01 µM, first compound 10 µM
[12] = second compound 0.0316 µM, first compound 0.0316 µM
[13] = second compound 0.0316 µM, first compound 0.1 µM
[14] = second compound 0.0316 µM, first compound 0.316 µM
[15] = second compound 0.0316 µM, first compound 1 µM
[16] = second compound 0.0316 µM, first compound 3.16 µM
[17] = second compound 0.0316 µM, first compound 10 µM
[18] = second compound 0.1 µM, first compound 0.0316 µM
[19] = second compound 0.1 µM, first compound 0.1 µM
[20] = second compound 0.1 µM, first compound 0.316 µM
[21] = second compound 0.1 µM, first compound 1 µM
[22] = second compound 0.1 µM, first compound 3.16 µM
[23] = second compound 0.1 µM, first compound 10 µM
[24] = second compound 0.316 µM, first compound 0.0316 µM
[25] = second compound 0.316 µM, first compound 0.1 µM
[26] = second compound 0.316 µM, first compound 0.316 µM
[27] = second compound 0.316 µM, first compound 1 µM
[28] = second compound 0.316 µM, first compound 3.16 µM
[29] = second compound 0.316 µM, first compound 10 µM
[30] = second compound 1 µM, first compound 0.0316 µM
[31] = second compound 1 µM, first compound 0.1 µM
[32] = second compound 1 µM, first compound 0.316 µM
[33] = second compound 1 µM, first compound 1 µM
[34] = second compound 1 µM, first compound 3.16 µM
[35] = second compound 1 µM, first compound 10 µM

## Cn1ncc(Cl)c1-c1cc(C(=O)NC(CN)Cc2cccc(F)c2)sc1Cl (stereo unspecified) + CCN1CCN(Cc2ccc(Nc3ncc(F)c(-c4cc(F)c5nc(C)n(C(C)C)c5c4)n3)nc2)CC1
[1]
  IC50: 847 nM
[2]
  IC50: 758 nM
[3]
  IC50: 838 nM
[4]
  IC50: 1320 nM
[5]
  IC50: 715 nM
[6]
  viability, T/C: 93%
[7]
  viability, T/C: 85.9%
[8]
  viability, T/C: 65.2%
[9]
  viability, T/C: 53.2%
[10]
  viability, T/C: 15%
[11]
  viability, T/C: 0.18%
[12]
  viability, T/C: 91.9%
[13]
  viability, T/C: 89.6%
[14]
  viability, T/C: 70.7%
[15]
  viability, T/C: 46.8%
[16]
  viability, T/C: 4.25%
[17]
  viability, T/C: 0.13%
[18]
  viability, T/C: 94.7%
[19]
  viability, T/C: 86.3%
[20]
  viability, T/C: 69%
[21]
  viability, T/C: 53.1%
[22]
  viability, T/C: 5.55%
[23]
  viability, T/C: 0.15%
[24]
  viability, T/C: 95.7%
[25]
  viability, T/C: 88.4%
[26]
  viability, T/C: 78.8%
[27]
  viability, T/C: 64.5%
[28]
  viability, T/C: 7.44%
[29]
  viability, T/C: 0.17%
[30]
  viability, T/C: 98.7%
[31]
  viability, T/C: 81.1%
[32]
  viability, T/C: 62.9%
[33]
  viability, T/C: 56.2%
[34]
  viability, T/C: 0.7%
[35]
  viability, T/C: 0.23%

## CC(C)n1nc(-c2ccc3oc(N)nc3c2)c2c(N)ncnc21 + CC(C)NCC(C(=O)N1CCN(c2ncnc3c2C(C)CC3O)CC1)c1ccc(Cl)cc1
[3]
  IC50: 13.9 nM
[4]
  IC50: 8.42 nM
[5]
  IC50: 2.59 nM
Curve of first compound, second compound 3.16 µM
  IC50: 0.594 nM
Curve of first compound, second compound 10 µM
  IC50: < 0.316 nM
Second compound 0.1 µM, first compound 0.000316 µM
  viability, T/C: 88.7%
Second compound 0.1 µM, first compound 0.001 µM
  viability, T/C: 92.6%
Second compound 0.1 µM, first compound 0.00316 µM
  viability, T/C: 77.4%
Second compound 0.1 µM, first compound 0.01 µM
  viability, T/C: 58.9%
[18]
  viability, T/C: 29.5%
[19]
  viability, T/C: 13.1%
Second compound 0.316 µM, first compound 0.000316 µM
  viability, T/C: 82.5%
Second compound 0.316 µM, first compound 0.001 µM
  viability, T/C: 85.9%
Second compound 0.316 µM, first compound 0.00316 µM
  viability, T/C: 65.4%
Second compound 0.316 µM, first compound 0.01 µM
  viability, T/C: 50.3%
[24]
  viability, T/C: 17.9%
[25]
  viability, T/C: 9.55%
Second compound 1 µM, first compound 0.000316 µM
  viability, T/C: 77.5%
Second compound 1 µM, first compound 0.001 µM
  viability, T/C: 64.8%
Second compound 1 µM, first compound 0.00316 µM
  viability, T/C: 48.4%
Second compound 1 µM, first compound 0.01 µM
  viability, T/C: 21.1%
[30]
  viability, T/C: 8.63%
[31]
  viability, T/C: 6.29%
Second compound 3.16 µM, first compound 0.000316 µM
  viability, T/C: 56.1%
Second compound 3.16 µM, first compound 0.001 µM
  viability, T/C: 42.6%
Second compound 3.16 µM, first compound 0.00316 µM
  viability, T/C: 36.5%
Second compound 3.16 µM, first compound 0.01 µM
  viability, T/C: 9.09%
Second compound 3.16 µM, first compound 0.0316 µM
  viability, T/C: 6.78%
Second compound 3.16 µM, first compound 0.1 µM
  viability, T/C: 7.35%
Second compound 10 µM, first compound 0.000316 µM
  viability, T/C: 48.4%
Second compound 10 µM, first compound 0.001 µM
  viability, T/C: 45.5%
Second compound 10 µM, first compound 0.00316 µM
  viability, T/C: 17.5%
Second compound 10 µM, first compound 0.01 µM
  viability, T/C: 8.22%
Second compound 10 µM, first compound 0.0316 µM
  viability, T/C: 8.47%
Second compound 10 µM, first compound 0.1 µM
  viability, T/C: 6.95%

## Cn1nccc1Nc1nccc(-c2ccn(C(CO)c3ccc(Cl)c(F)c3)c(=O)c2)n1 (stereo unspecified)
Compound 0.0316 µM
  viability, T/C: 96.3% and 104%
Compound 0.1 µM
  viability, T/C: 96.2% and 111%
Compound 0.316 µM
  viability, T/C: 116% and 119%
Compound 1 µM
  viability, T/C: 129% and 118%
Compound 3.16 µM
  viability, T/C: 128% and 143%
Compound 10 µM
  viability, T/C: 88.5% and 102%
Curve of compound
  IC50: > 10000 nM

## Cn1nccc1Nc1nccc(-c2ccn(C(CO)c3ccc(Cl)c(F)c3)c(=O)c2)n1 (stereo unspecified) + CCN1CCN(Cc2ccc(Nc3ncc(F)c(-c4cc(F)c5nc(C)n(C(C)C)c5c4)n3)nc2)CC1
[1]
  IC50: > 10000 nM
[2]
  IC50: > 10000 nM
[3]
  IC50: > 10000 nM
[4]
  IC50: > 10000 nM
[5]
  IC50: > 10000 nM
[6]
  viability, T/C: 107%
[7]
  viability, T/C: 113%
[8]
  viability, T/C: 115%
[9]
  viability, T/C: 126%
[10]
  viability, T/C: 143%
[11]
  viability, T/C: 104%
[12]
  viability, T/C: 105%
[13]
  viability, T/C: 116%
[14]
  viability, T/C: 128%
[15]
  viability, T/C: 136%
[16]
  viability, T/C: 138%
[17]
  viability, T/C: 62.1%
[18]
  viability, T/C: 116%
[19]
  viability, T/C: 129%
[20]
  viability, T/C: 139%
[21]
  viability, T/C: 136%
[22]
  viability, T/C: 139%
[23]
  viability, T/C: 74.8%
[24]
  viability, T/C: 119%
[25]
  viability, T/C: 115%
[26]
  viability, T/C: 131%
[27]
  viability, T/C: 143%
[28]
  viability, T/C: 133%
[29]
  viability, T/C: 95%
[30]
  viability, T/C: 126%
[31]
  viability, T/C: 125%
[32]
  viability, T/C: 123%
[33]
  viability, T/C: 148%
[34]
  viability, T/C: 145%
[35]
  viability, T/C: 113%

## Cn1ncnc1[C@H]1c2n[nH]c(=O)c3cc(F)cc(c23)N[C@@H]1c1ccc(F)cc1
Compound 0.000316 µM
  viability, T/C: 139% and 91.4%
Compound 0.001 µM
  viability, T/C: 97.3% and 97.9%
Compound 0.00316 µM
  viability, T/C: 92.7% and 90%
Compound 0.01 µM
  viability, T/C: 90.3% and 100%
Compound 0.0316 µM
  viability, T/C: 94% and 102%
Compound 0.1 µM
  viability, T/C: 85.9% and 102%
Curve of compound
  IC50: > 100 nM

## C=CC(=O)N1CCN(c2nc(=O)n(-c3c(C)ccnc3C(C)C)c3nc(-c4c(O)cccc4F)c(F)cc23)C(C)C1 (stereo unspecified) + CCN1CCN(Cc2ccc(Nc3ncc(F)c(-c4cc(F)c5nc(C)n(C(C)C)c5c4)n3)nc2)CC1
[1]
  IC50: > 10000 nM
[2]
  IC50: > 10000 nM
[3]
  IC50: > 10000 nM
[4]
  IC50: > 10000 nM
[5]
  IC50: 6470 nM
[6]
  viability, T/C: 97.6%
[7]
  viability, T/C: 95.6%
[8]
  viability, T/C: 112%
[9]
  viability, T/C: 98.4%
[10]
  viability, T/C: 91.4%
[11]
  viability, T/C: 58.8%
[12]
  viability, T/C: 98.5%
[13]
  viability, T/C: 94.7%
[14]
  viability, T/C: 102%
[15]
  viability, T/C: 110%
[16]
  viability, T/C: 76.9%
[17]
  viability, T/C: 48.3%
[18]
  viability, T/C: 117%
[19]
  viability, T/C: 107%
[20]
  viability, T/C: 118%
[21]
  viability, T/C: 101%
[22]
  viability, T/C: 84.4%
[23]
  viability, T/C: 59.4%
[24]
  viability, T/C: 106%
[25]
  viability, T/C: 106%
[26]
  viability, T/C: 111%
[27]
  viability, T/C: 94.8%
[28]
  viability, T/C: 70.7%
[29]
  viability, T/C: 50.9%
[30]
  viability, T/C: 100%
[31]
  viability, T/C: 101%
[32]
  viability, T/C: 96.4%
[33]
  viability, T/C: 78.9%
[34]
  viability, T/C: 62%
[35]
  viability, T/C: 43.1%

## CC1(C)CCC(CN2CCN(c3ccc(C(=O)NS(=O)(=O)c4ccc(NCC5CCOCC5)c([N+](=O)[O-])c4)c(Oc4cnc5[nH]ccc5c4)c3)CC2)=C(c2ccc(Cl)cc2)C1
Compound 0.0316 µM
  viability, T/C: 88.4% and 102%
Compound 0.1 µM
  viability, T/C: 102% and 108%
Compound 0.316 µM
  viability, T/C: 97.2% and 109%
Compound 1 µM
  viability, T/C: 94.4% and 98.2%
Compound 3.16 µM
  viability, T/C: 84.6% and 98.1%
Compound 10 µM
  viability, T/C: 16.5% and 20.3%
Curve of compound
  IC50: 5680 nM and 6450 nM
